We go through 1 cell line from the supplement of paper PMC10307832.

Holding throughout (test): relative viability (nuclei count vs DMSO), 5 days (fraction); higher = more cells survive
Compound in the assay “Crenolanib + Luminespib”: CC1(COc2ccc3c(c2)ncn3-c2ccc3cccc(N4CCC(N)CC4)c3n2)COC1 [Crenolanib] + CCNC(=O)c1noc(-c2cc(C(C)C)c(O)cc2O)c1-c1ccc(CN2CCOCC2)cc1 [Luminespib] (partner 0.01 µM)
The essentials: (§1)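 Lung cancer cell lines, seeded in 1536-well plates, were treated the following day by pin tool with a single drug or with five library-drug doses (not always all listed) in √10 steps on top of a fixed anchor-drug dose. Cells were fixed and nuclei stained in one step after 5 days, and nuclei were counted. Relative viability is the nuclei count for treated wells divided by that for vehicle wells, reported as medians of duplicate plates.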

Compound in the assay “Tivantinib + Palbociclib”: O=C1NC(=O)[C@@H](c2cn3c4c(cccc24)CCC3)[C@@H]1c1c[nH]c2ccccc12 [Tivantinib] + CC(=O)c1c(C)c2cnc(Nc3ccc(N4CCNCC4)cn3)nc2n(C2CCCC2)c1=O [Palbociclib] (partner 0.5 µM)
Summed up: as §1

Compound in the assay “Tivantinib + Phenformin”: O=C1NC(=O)[C@@H](c2cn3c4c(cccc24)CCC3)[C@@H]1c1c[nH]c2ccccc12 [Tivantinib] + N=C(N)NC(=N)NCCc1ccccc1 [Phenformin] (partner 250 µM)
The essentials: as §1

Compound in the assay “Tivantinib + Olaparib”: O=C1NC(=O)[C@@H](c2cn3c4c(cccc24)CCC3)[C@@H]1c1c[nH]c2ccccc12 [Tivantinib] + O=C(c1cc(Cc2n[nH]c(=O)c3ccccc23)ccc1F)N1CCN(C(=O)C2CC2)CC1 [Olaparib] (partner 8 µM)
The essentials: as §1

For UMC-11, the relative viability amounted to 1.06 with Crenolanib + Luminespib (first compound 0.01 µM); 1.02 with Crenolanib + Luminespib (first compound 0.03162 µM); 1.02 with Crenolanib + Luminespib (first compound 0.1 µM); 1.11 with Crenolanib + Luminespib (first compound 0.3162 µM); 1.07 with Crenolanib + Luminespib (first compound 1 µM); 0.354 in the assay with Tivantinib + Palbociclib (first compound 0.01 µM). In addition, the relative viability was 0.332 with Tivantinib + Palbociclib (first compound 0.03162 µM); 0.314 with Tivantinib + Palbociclib (first compound 0.1 µM); 0.311 with Tivantinib + Palbociclib (first compound 0.3162 µM); 0.331 with Tivantinib + Phenformin (first compound 0.01 µM); 0.338 with Tivantinib + Phenformin (first compound 0.03162 µM); 0.289 with Tivantinib + Phenformin (first compound 0.1 µM). Besides, the relative viability came out at 0.371 with Tivantinib + Phenformin (first compound 0.3162 µM); 0.354 in the assay with Tivantinib + Olaparib (first compound 0.01 µM); 0.341 with Tivantinib + Olaparib (first compound 0.03162 µM); 0.365 with Tivantinib + Olaparib (first compound 0.1 µM); 0.362 with Tivantinib + Olaparib (first compound 0.3162 µM).
